Assay results taken from PubChem BioAssay (NCI).
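These data come from cells grown in 96-well plates and exposed to compound for 48 hours at five concentrations. TGI: total growth inhibition.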

Tests used:
Assay in all cases: growth of human tumour cells (NCI), 48 h
[1] = test system: A498 renal
[2] = test system: UO-31 renal
[3] = test system: SN12C renal
[4] = test system: OVCAR-4 ovarian
[5] = test system: HOP-62 NSCLC
[6] = test system: SW-620 colon
[7] = test system: SF-268 CNS
[8] = test system: NCI-H460 lung
[9] = test system: EKVX NSCLC
[10] = test system: 786-0 renal
[11] = test system: CCRF-CEM leukemia
[12] = test system: SNB-75 CNS
[13] = test system: OVCAR-5 ovarian
[14] = test system: SK-MEL-5 melanoma
[15] = test system: UACC-62 melanoma
[16] = test system: OVCAR-8 ovarian
[17] = test system: MCF7 breast
[18] = test system: BT-549 breast
[19] = test system: HS 578T breast
[20] = test system: MDA-N

Compound	TGI [1]	TGI [2]	TGI [3]	TGI [4]	TGI [5]	TGI [6]	TGI [7]	TGI [8]	TGI [9]	TGI [10]	TGI [11]	TGI [12]	TGI [13]	TGI [14]	TGI [15]	TGI [16]	TGI [17]	TGI [18]	TGI [19]	TGI [20]
C=CCC1(CN(C)C)CC/C(=C\c2ccc(Cl)cc2)C1=O (centres undefined)	> 100 µM	> 100 µM	> 100 µM	> 94.5 µM	> 100 µM	> 76.2 µM	> 100 µM	45.6 µM	> 100 µM	> 100 µM	24 µM	> 90.3 µM	> 100 µM	> 79.1 µM	> 100 µM	> 100 µM				
O=c1c2ncn(C3CCCO3)c2n(-c2ccccc2)c(=S)n1-c1ccccc1 (centres undefined)	> 100 µM	> 100 µM	> 100 µM	> 100 µM	> 100 µM	> 100 µM	> 100 µM	> 100 µM	> 100 µM	> 100 µM	> 100 µM	> 100 µM	> 100 µM	> 100 µM	> 100 µM	> 100 µM	> 100 µM	> 100 µM		
C=C(C)C1CCC2(C)CC1c1c(c(C)cc3c1[nH]c1ccccc13)O2 (centres undefined)		> 25 µM	> 25 µM	> 25 µM	> 25 µM	> 25 µM	> 25 µM	> 25 µM		> 25 µM	> 25 µM		> 25 µM	> 25 µM	> 25 µM	> 25 µM				
CC(=O)NC1=N/C(=C\c2ccc(Cl)cc2)C(=O)N1/C=C1\C(=O)Oc2ccccc2C1=O	57.8 µM		> 100 µM	> 100 µM	> 100 µM	> 100 µM	> 100 µM	> 100 µM	> 100 µM	> 100 µM	> 100 µM	> 100 µM	> 100 µM	> 100 µM	> 100 µM	> 100 µM	> 100 µM		6.22 µM	> 100 µM
O=C1c2ccccc2C(=O)c2c1nc1ccccc1c2-c1cncc(-c2c3c(nc4ccccc24)C(=O)c2ccccc2C3=O)c1	26.7 µM	31.8 µM	27.9 µM	> 100 µM	> 100 µM	37.8 µM	> 62.8 µM	10 µM	> 100 µM	67.4 µM	43.9 µM	21.1 µM	> 100 µM	4.22 µM	19.9 µM	27.1 µM	32.8 µM	40 µM	14.7 µM	
COC(=O)[C@@]1(C)/C(=N/NS(=O)(=O)c2ccc(C)cc2)CCC[C@@H]1C	> 100 µM	> 100 µM	> 100 µM	> 100 µM	> 100 µM		> 100 µM	> 100 µM	> 100 µM	> 100 µM	> 100 µM	> 100 µM	> 100 µM	> 100 µM	> 100 µM	> 100 µM				
CC1CN=C(N(C(=O)Nc2ccccc2)c2ccc(Cl)c(Cl)c2)S1 (centres undefined)	64.9 µM	> 100 µM	56.6 µM	> 100 µM	> 100 µM	> 100 µM	> 100 µM	53.1 µM	> 100 µM	93.8 µM	> 10 µM	> 100 µM	> 100 µM	34.5 µM		> 100 µM	> 100 µM		> 100 µM	> 10 µM
COc1ccc(OC)c(/C=C(/C#N)c2ccccc2)c1	83.8 µM		> 100 µM	81.5 µM	> 100 µM	> 100 µM	> 100 µM	> 100 µM	> 100 µM	> 100 µM	62.1 µM	32.8 µM	> 100 µM	94.5 µM	35.8 µM	> 100 µM				
COc1ccc(C(C#N)NNC(=O)Cc2ccccc2)cc1OC (centres undefined)		> 100 µM	> 100 µM	> 100 µM	> 100 µM	> 100 µM	> 100 µM	> 100 µM		> 100 µM	> 100 µM	> 100 µM	> 100 µM	> 100 µM	> 100 µM	> 100 µM				
CC1(C)CC(=O)CC(=Nc2ccc([N+](=O)[O-])cc2)C1	> 100 µM	> 100 µM	> 100 µM		> 100 µM		> 100 µM	> 100 µM	> 100 µM	> 100 µM	60.8 µM	> 100 µM	> 100 µM	> 100 µM	> 100 µM	> 100 µM				
O=[N+]([O-])c1ccc(-c2cnc3ccccn23)cc1	> 100 µM	> 100 µM	> 100 µM	> 100 µM	> 100 µM	> 100 µM	> 100 µM	> 100 µM	> 100 µM	> 100 µM	> 100 µM	92 µM	> 100 µM	> 100 µM	> 100 µM	> 100 µM				
CC(C)=CC1CC(=[N+]=[N-])C(=O)C1(C)C (centres undefined)	> 100 µM	> 100 µM	> 100 µM	> 100 µM	> 100 µM	> 100 µM	> 100 µM	> 100 µM	> 100 µM	> 100 µM	> 83.7 µM	> 86.5 µM	> 100 µM	> 100 µM	> 100 µM	> 100 µM				
O=C(CSc1c2ccccc2nc2ccccc12)Nc1ccccc1-c1ccccc1NC(=O)CSc1c2ccccc2nc2ccccc12	> 93.4 µM	> 100 µM	> 83.5 µM	> 40.3 µM	> 63.3 µM	> 100 µM	> 69.4 µM	> 88.4 µM	> 76.6 µM	69.4 µM	> 78.7 µM	> 100 µM	> 100 µM	28.3 µM	52.7 µM	> 86.8 µM				
COc1ccc(/C=C(\C(C)=O)C(=O)Nc2ccccc2)cc1		> 100 µM	> 100 µM	> 100 µM	> 100 µM	> 100 µM	> 100 µM	> 100 µM	> 100 µM	> 100 µM	> 100 µM		> 100 µM	> 100 µM	> 100 µM	> 100 µM				
CNCCCn1c2ccccc2c2c3c(c(-c4ccsc4)cc21)C(=O)NC3=O	< 0.0254 µM	0.218 µM	2.7 µM	3.22 µM	2.24 µM	2.92 µM	4 µM		3.75 µM	1.48 µM	3.24 µM	3.43 µM	3.16 µM	2.16 µM		2.07 µM		13.7 µM		
C[N+](C)(C)CC1CCC/C1=N\OC(=O)c1ccccc1 (centres undefined)	> 100 µM	> 100 µM	> 100 µM	> 100 µM	> 100 µM	> 100 µM	> 100 µM		> 100 µM	> 100 µM	> 100 µM	> 100 µM		> 100 µM	> 100 µM	> 100 µM				
CSc1ccsc1-c1sc(-c2cc(SC)c(-c3sc(-c4cc(SC)c(-c5sccc5SC)s4)cc3SC)s2)cc1SC	> 100 µM		> 100 µM	> 100 µM	> 100 µM	69.7 µM	> 100 µM	> 100 µM	> 100 µM	29.1 µM	27 µM		> 100 µM	> 100 µM	> 100 µM	> 100 µM	> 100 µM	> 100 µM	> 100 µM	
CCOC1c2cc(C(C)C)c(O)c(O)c2[C@@]23CCCC(C)(C)C2C1OC3=O (some centres undefined)		> 100 µM	> 100 µM		> 100 µM	> 100 µM	> 100 µM	> 100 µM	> 100 µM	> 100 µM	> 100 µM	> 100 µM	> 100 µM	> 100 µM	> 100 µM	> 100 µM				
C=CN1C(=O)[C@H](Oc2ccccc2)[C@@H]1c1ccccc1	> 100 µM	> 100 µM	> 100 µM		92.2 µM	> 100 µM	> 100 µM	> 100 µM	> 100 µM	33.1 µM	> 100 µM	61.8 µM	> 100 µM	> 100 µM		83.6 µM				
COC(=O)C(C(=O)Cc1ccccc1[N+](=O)[O-])C(=O)OC		> 100 µM	> 100 µM	> 100 µM	> 100 µM	> 100 µM	> 100 µM	> 100 µM	> 100 µM	> 100 µM	> 100 µM	> 100 µM		> 100 µM	> 100 µM	> 100 µM				
Cn1c2c(c3ccccc31)CCN1C(=O)CN(C(=O)C3CCCCC3)CC21 (centres undefined)		> 100 µM	> 100 µM	> 100 µM	> 100 µM	> 100 µM	> 100 µM	> 100 µM	> 100 µM	> 100 µM	> 100 µM	> 100 µM	> 100 µM	> 100 µM	> 100 µM	> 100 µM	> 100 µM		> 100 µM	> 100 µM
CCOC(=O)/C(=C/c1ccc(N(C)C)cc1)N(CC)CC		> 100 µM	> 100 µM	> 100 µM	> 100 µM	> 100 µM	> 100 µM		> 100 µM	> 100 µM	91.9 µM		> 100 µM		> 100 µM	> 100 µM				
CCCCC/C=C1\CCC(CN(C)C)C1=O (centres undefined)		31.4 µM	30.1 µM	42.2 µM	31.7 µM	11.7 µM	41.4 µM	> 100 µM	> 56.3 µM	7.02 µM	18.5 µM	32.3 µM	33.7 µM	34.3 µM	29.4 µM	> 41.7 µM				
O=S(=O)(c1ccccc1)N1N=C2c3ccccc3CCC[C@H]2C1c1ccccc1 (some centres undefined)	> 100 µM	> 100 µM	> 100 µM	> 100 µM	> 100 µM	> 100 µM	> 100 µM	> 100 µM	> 100 µM	> 100 µM	> 100 µM	> 100 µM	> 100 µM	> 100 µM	> 100 µM	> 100 µM				
CCOC(=O)c1sc2c(c1OC(=O)c1ccc(OC)cc1)c(=O)n(-c1ccccc1)c(=S)n2-c1ccccc1	41.4 µM		> 100 µM	24.6 µM	> 100 µM	> 100 µM	> 100 µM	> 100 µM	> 100 µM	> 100 µM	> 100 µM	> 100 µM	> 100 µM	> 100 µM	> 100 µM	> 100 µM	> 100 µM		> 100 µM	> 100 µM
CN(C)/N=C1/CCC(C(F)(F)F)(C(F)(F)F)O1	53.1 µM	98.2 µM	81 µM	> 100 µM	85 µM	> 100 µM	> 100 µM	> 100 µM	> 100 µM	93.4 µM	90.3 µM	97.5 µM	> 100 µM	52.6 µM	68.8 µM				88.4 µM	> 100 µM
C=CCN(C(=O)CNC(=O)C(F)(F)F)c1cc(OCc2ccccc2)c2c(c1)c(C)cn2S(=O)(=O)c1ccccc1		15.6 µM	> 100 µM	> 100 µM	> 100 µM		> 100 µM	> 100 µM	> 100 µM	> 100 µM	> 100 µM	> 76.2 µM	> 100 µM	> 100 µM	> 100 µM	> 100 µM	> 100 µM	> 100 µM	> 100 µM	
CN(CCN(C)C(=O)CCn1cc(F)c(=O)[nH]c1=O)C(=O)CCn1cc(F)c(=O)[nH]c1=O		> 100 µM	> 100 µM	> 100 µM	> 100 µM	> 100 µM	> 100 µM	> 100 µM	> 100 µM	> 100 µM	> 100 µM	> 100 µM	> 100 µM	> 100 µM	> 100 µM	> 100 µM				
Cn1cnnc1Sc1c([N+](=O)[O-])ncn1C	> 100 µM	> 100 µM	> 100 µM	> 100 µM	> 100 µM	> 100 µM	> 100 µM	> 100 µM	> 100 µM	> 100 µM	> 100 µM	> 100 µM	> 100 µM	> 100 µM	> 100 µM	> 100 µM				
